Test results: US8242240B2, “Anti-inflammatory compounds and uses thereof” (Yale University, priority 2000, dated 2012)

Tests used:
NF-κB = test: EMSA of nuclear extracts from TNFα-treated HeLa cells; type: cell-based, human; settings: peptide 50, 100 or 200 μM 3 h, TNFα 10 ng/ml 15 min
[1] = tested on: mice (PMA-induced ear edema); test: PMA-induced ear edema in mice; type: in vivo; settings: topical 200 μg/ear
Experimental: The NBD peptide was tested for its ability to inhibit inflammatory responses in animals using two distinct models of acute inflammation. In the first model, ear edema was induced in mice using phorbol-12-myristate-13-acetate (PMA) and the effects of topical administration of the NBD peptides were measured. Ear edema using PMA was induced in replicate groups of age and sex matched mice as previously described (Chang et al., (1987) Eur. J. Pharmacol. 142, 197-205). Twenty μl of either NBD peptides (200 μg/ear), dexamethasone (40 μg/ear) or vehicle (DMSO:Ethanol; 25:75 v/v) was applied topically to the right ear of mice thirty minutes before and thirty minutes after the application of 20 μl of PMA (5 μg/ear) dissolved in ethanol. Ear swelling was measured six hours after PMA application using a microgauge and expressed as the mean difference in thickness between the treated (right) and untreated (left) ears. Statistical analysis of the data was performed using the students t-test. A value of p<0.05 was considered statistically significant.

Row | Substance | inhibition of TNFα-induced activation and nuclear translocation of NF-κB (EMSA) (NF-κB) | inhibition of PMA-induced ear thickening ([1]; 30 min before and after PMA 5 μg/ear, 6 h) | effect on PMA-induced ear thickening ([1]; p=0.09)
1 | [DRQIKIWFQNRRMKWKK]TALDWSWLQTE (DRQIKIWFQNRRMKWKKTALDWSWLQTE; Description of Unknown: Unknown wildtype NBD peptide) [wild-type NBD peptide] | inhibited | 77±3% | –
2 | [DRQIKIWFQNRRMKWKK]TALDASALQTE (DRQIKIWFQNRRMKWKKTALDASALQTE; Description of Artificial Sequence: Synthetic Mutant NBD peptide) [identical to wild-type NBD peptide except W739 and W741 mutated to alanine, reference compound] | – | – | insignificant
